The term IC50 denotes the concentration at which inhibition is half-maximal.

Drawing on US6399643B1, “Spiroimidazolidine derivatives, their preparation, their use and pharmaceutical preparations formed therefrom” (Aventis Pharma Deutschland GmbH, priority 1999, dated 2002), this text covers IC50 for two molecules.

In this experiment the target is T1, interaction between VCAM-1 and VLA-4 (Homo sapiens, UniProt P05556+P13612).
T1 construct: supplied in their natural form as surface molecules on human U937 cells; host or cells: human U937 cells (VLA-4, endogenous); the partner hVCAM-1(1-3)-IgG was made in house in transfected COS cells (ATCC CRL1651) and used as culture supernatant
T1 sequence (P13612 34-1032): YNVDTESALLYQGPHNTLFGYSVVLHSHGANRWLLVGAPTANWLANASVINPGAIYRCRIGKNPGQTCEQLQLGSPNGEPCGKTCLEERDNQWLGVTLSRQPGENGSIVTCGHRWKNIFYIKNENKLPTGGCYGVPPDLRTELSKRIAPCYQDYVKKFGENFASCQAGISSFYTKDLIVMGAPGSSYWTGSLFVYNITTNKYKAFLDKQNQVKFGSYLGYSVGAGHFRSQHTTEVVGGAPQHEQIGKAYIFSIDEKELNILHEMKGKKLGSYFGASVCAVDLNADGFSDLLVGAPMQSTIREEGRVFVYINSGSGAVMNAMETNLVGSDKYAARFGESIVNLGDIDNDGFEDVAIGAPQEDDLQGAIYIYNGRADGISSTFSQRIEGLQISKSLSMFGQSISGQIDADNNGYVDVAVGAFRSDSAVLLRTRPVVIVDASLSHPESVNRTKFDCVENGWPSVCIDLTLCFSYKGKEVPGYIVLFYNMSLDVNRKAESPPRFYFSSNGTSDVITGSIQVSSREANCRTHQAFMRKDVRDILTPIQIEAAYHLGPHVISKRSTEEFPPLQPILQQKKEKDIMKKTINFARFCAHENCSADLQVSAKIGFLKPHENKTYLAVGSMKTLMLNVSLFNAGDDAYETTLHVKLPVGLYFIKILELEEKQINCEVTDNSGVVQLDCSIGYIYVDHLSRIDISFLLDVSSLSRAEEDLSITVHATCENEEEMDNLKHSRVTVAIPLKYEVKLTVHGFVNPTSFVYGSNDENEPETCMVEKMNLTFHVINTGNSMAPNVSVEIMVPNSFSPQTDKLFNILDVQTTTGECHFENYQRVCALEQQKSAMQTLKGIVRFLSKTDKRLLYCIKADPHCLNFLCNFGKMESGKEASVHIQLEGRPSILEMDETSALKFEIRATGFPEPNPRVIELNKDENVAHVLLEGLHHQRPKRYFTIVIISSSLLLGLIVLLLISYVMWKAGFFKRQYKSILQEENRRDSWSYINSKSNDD
T1 sequence (P05556 21-798): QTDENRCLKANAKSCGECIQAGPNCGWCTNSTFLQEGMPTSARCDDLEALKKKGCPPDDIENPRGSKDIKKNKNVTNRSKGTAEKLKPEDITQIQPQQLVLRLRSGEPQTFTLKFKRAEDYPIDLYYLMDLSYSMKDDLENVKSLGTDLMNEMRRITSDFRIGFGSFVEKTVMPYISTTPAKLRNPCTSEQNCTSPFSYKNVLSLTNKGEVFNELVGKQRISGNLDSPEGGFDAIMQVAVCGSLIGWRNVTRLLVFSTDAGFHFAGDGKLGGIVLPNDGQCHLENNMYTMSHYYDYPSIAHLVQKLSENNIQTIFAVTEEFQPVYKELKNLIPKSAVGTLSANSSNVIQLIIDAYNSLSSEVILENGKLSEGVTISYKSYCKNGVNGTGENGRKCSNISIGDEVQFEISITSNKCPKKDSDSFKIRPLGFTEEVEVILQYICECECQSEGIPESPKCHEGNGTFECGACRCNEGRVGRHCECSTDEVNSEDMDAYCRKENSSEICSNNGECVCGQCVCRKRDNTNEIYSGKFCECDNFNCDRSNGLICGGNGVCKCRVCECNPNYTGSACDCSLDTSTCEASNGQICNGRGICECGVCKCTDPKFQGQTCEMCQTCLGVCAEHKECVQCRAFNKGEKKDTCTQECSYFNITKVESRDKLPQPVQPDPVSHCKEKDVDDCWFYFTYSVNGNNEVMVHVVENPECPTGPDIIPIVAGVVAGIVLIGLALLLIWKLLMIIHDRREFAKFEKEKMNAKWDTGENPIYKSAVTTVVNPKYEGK
In words: U937/VCAM-1 cell adhesion test (adhesion of U937 cells to hVCAM-1(1-3)-IgG). It counts as cell-based. Particulars: inhibition of adhesion of human U937 cells (ATCC CRL 1593) to hVCAM-1(1-3)-IgG. The source says:
A) U937/VCAM-1 Cell Adhesion Test
The test method used for the activity of the compounds of the formula I on the interaction between VCAM-1 and VLA-4 is the assay described below, which is specific for this interaction. The cellular binding components, that is the VLA-4 integrins, are supplied in their natural form as surface molecules on human U937 cells (ATCC CRL 1593), which belong to the leukocytes group. The specific binding components used are genetically engineered recombinant soluble fusion proteins, consisting of the extracytoplasmic domain of human VCAM-1 and the constant region of a human immunoglobulin of the subclass IgG1.
Assay for the Measurement of the Adhesion of U937 Cells (ATCC CRL 1593) to hVCAM-1 (1-3)-IgG
1. Preparation of Human VCAM-1(1-3)-IgG and Human CD4-IgG
A genetic construct for the expression of the extracellular domain of human VCAM-1, combined with the genetic sequence of the heavy chain of human immunoglobulin IgG1 (hinge, CH2 and CH3 regions) (from Brian Seed, Massachusetts General Hospital, Boston, USA; cf. Damle and Aruffo, Proc. Natl. Acad. Sci. USA 1991, 88, 6403), was employed. The soluble fusion protein hVCAM-1(1-3)-IgG contained the three aminoterminal extracellular immunoglobulin-like domains of human VCAM-1 (Damle and Aruffo, Proc. Natl. Acad. Sci. USA 1991, 88, 6403). CD4-IgG (Zettlmeissl et al., DNA and Cell Biology 1990, 9, 347) served as a fusion protein for negative controls. The recombinant proteins were expressed as soluble proteins after DEAE/dextran-mediated DNA transfection in COS cells (ATCC CRL1651) according to standard procedures (Ausubel et al., Current protocols in molecular biology, John Wiley & Sons, Inc., 1994).
2. Assay for the Measurement of the Adhesion of U937 Cells to hVCAM-1(1-3)-IgG
2.1 96-well microtiter test plates (Nunc Maxisorb) were incubated at room temperature for 1 hour with 100 μl/well of a goat-anti-human IgG antibody solution (10 μg/ml in 50 mM tris, pH 9.5). After removal of the antibody solution, washing was carried out once with PBS.
2.2 150 μl/well of a blocking buffer (1% BSA in PBS) were incubated on the plates at room temperature for 0.5 hour. After removal of the blocking buffer, washing was carried out once with PBS.
2.3 100 μl per well of a cell culture supernatant of transfected COS cells were incubated on the plates at room temperature for 1.5 hours. The COS cells were transfected with a plasmid which codes for the three N-terminal immunoglobulin-like domains of VCAM-1, coupled to the Fc portion of human IgG1 (hVCAM-1 (1-3)-IgG). The content of hVCAM-1(1-3)-IgG was about 0.5-1 μg/ml. After removing the culture supernatant, washing was carried out once with PBS.
2.4 The plates were incubated at room temperature for 20 minutes with 100 μl/well of Fc receptor blocking buffer (1 mg/ml of γ-globulin, 100 mM NaCl, 100 μM MgCl2, 100 μM MnCl2, 100 μM CaCl2, 1 mg/ml of BSA in 50 mM HEPES, pH 7.5). After removal of the Fc receptor blocking buffer, washing was carried out once with PBS.
2.5 20 μl of binding buffer (100 μM NaCl, 100 μM MgCl2, 100 μM MnCl2, 100 μM CaCl2, 1 mg/ml of BSA in 50 mM HEPES, pH 7.5) were initially introduced, and the substances to be tested were added in 10 μl of binding buffer and incubated for 20 minutes. The controls used were antibodies against VCAM-1(BBT, No. BBA6) and against VLA-4(Immunotech, No. 0764).
2.6 U937 cells were incubated in Fc receptor blocking buffer for 20 minutes and then pipetted in at a concentration of 1×10^6/ml and in an amount of 100 μl per well ([…]).
2.7 The plates were slowly immersed at an angle of 45° in stop buffer (100 mM NaCl, 100 μM MgCl2, 100 μM MnCl2, 100 μM CaCl2 in 25 mM Tris, pH 7.5) and shaken off. The process was repeated.
2.8 50 μl/well of a dye solution ([…] of Hoechst Dye 33258, 4% formaldehyde, 0.5% Triton X-100 in PBS) were then incubated on the plates for 15 minutes. […]

Where a name gives a salt, the structure may show the parent alone.

Take `COc1ccc([C@H](CC(=O)O)NC(=O)[C@H](CC2CC2)N2C(=O)N(Cc3ccc(NC(=O)Nc4ccccc4C)cc3)C3(CCCCC3)C2=O)c(OC)c1` [Example 40, (S)-3-((S)-2-(4,4-Pentamethylene-3-(4-(3-(2-methylphenyl)ureido)benzyl)-2,5-dioxoimidazolidin-1-yl)-2-cyclopropylmethylacetylamino)-3-(2,4-dimethoxyphenyl)propionic acid]: the IC50 came out at 2.1 nM.
`COc1ccc([C@H](CC(=O)O)NC(=O)[C@H](CC2CC2)N2C(=O)N(Cc3ccc(NC(=O)Nc4ccccc4C)cc3)C3(CCCCC3)C2=O)c(OC)c1` [Example 41, (S)-3-((S)-2-(4,4-Pentamethylene-3-(4-(3-(2-methylphenyl)ureido)benzyl)-2,5-dioxoimidazolidin-1-yl)-2-cyclopropylmethylacetylamino)-3-(2,4-dimethoxyphenyl)propionic acid sodium salt] came in with an IC50 of 2.3 nM.
